Results published in patent publication US7829555B1, “Drug targeting” (The University of Manchester, priority 1997, dated 2010).

Experiments:
[1] = Reduction initiated release of aspirin, product analysis (HPLC) following γ-radiolysis; assay type: physicochemical; conditions: reduction by (CH3)2C.OH radical; N2O-saturated solution, quinone 100 μM, 2-propanol 8.3M (50%, v/v), pH 7.4
Procedure: The reduction initiated release of aspirin from the indoloquinone-acetyl salicylic acid conjugate of Example 5 was investigated by product analysis (HPLC) following γ-radiolysis of N2O-saturated solutions containing the quinone (100 μM) and 2-propanol (8.3M, 50%, v/v) at pH 7.4.
The radiation chemical yield (G) of the (CH3)2C.OH radical in N2O-saturated 2-propanol/water mixtures was determined by ferricyanide reduction to be G((CH3)2C.OH)=0.67±0.02 μmol J^−1 in 2-propanol/water (50%, v/v) and 0.72±0.03 μmol J^−1 in 1 M 2-propanol respectively. […] Loss of the parent quinone (G(−Q)=1.63±0.01 μmol J^−1) parallel the formation of the aspirin leaving group (LG) with G(LG)=1.40±0.15 μmol J^−1.
Indolequinone solutions were saturated with N2O gas in gas-tight vials before irradiation in a ^60Co source. […] A dose rate of 6-6.5 Gy min^−1 was used, as determined by Fricke dosimetry and radiation chemical yields were corrected for the absorbed dose in the various alcohol-water mixtures employed.
Product analysis following γ-radiolysis was performed by gradient HPLC separation on a 100 mm×4.6 mm base-deactivated reverse-phase column (Hichrom RPB, Hichrom, Reading, U.K.). […] Detection was at 232 nm using a Waters 486 detector (Watford, U.K.) and concentrations were determined from peak areas using Waters Maxima software.

[2] = Pharmacokinetics of the indoloquinone-acetyl salicylic acid conjugate in carrageenin air pouch rats (HPLC of blood, exudate, urine); assay type: in vivo, male Wistar albino rats; conditions: rats with carrageenin air pouch, 20 mg conjugate injected, exudate and urine collected after 2 or 4 hours
Procedure: Pharmacokinetics of the indoloquinone-acetyl salicylic acid conjugate of Example 5 were studied as follows:
Three groups of male Wistar albino rats (n=5) received sterile air dorsally (day 1). After two days a further 20 ml sterile air were administered. On day 5, 2 ml of a 1% carrageenin in sterile saline was injected directly into the air pouch. Animals were housed in metabolic cages. 100 mg of the indoloquinone-aspirin conjugate of Example 5 were suspended in ethanol (2 ml). 50 mg acetyl salicylic acid was dissolved in 2 ml ethanol. 2 ml ethanol was used as a control. 18 ml sterile water were added to each sample. On day 9, each animal was injected with 4 ml of solution as follows: Group A—20 mg indoloquinone-aspirin conjugate Group B—10 mg acetyl salicylic acid Group C—ethanol (control) The animals were then returned to their cages for periods of either 2 (nos. 1, 2 and 3 from each group) or 4 hours (nos. 4 and 5 from each group). After this time the animals were anaesthetized and blood and exudate collected. Available urine was also collected.

Structure (SMILES): COC1=CC(=O)c2c(c(COC(=O)c3ccccc3OC(C)=O)c(C)n2C)C1=O [Example 5, 3-(2-Acetoxybenzoyloxy)methyl-1,2-dimethyl-5-methoxyindole-4,7-dione]
- Formation of the aspirin leaving group, radiation chemical yield G(LG) [1]: 1.40 ± 0.15 µmol/J
- Loss of the parent quinone, radiation chemical yield G(−Q) [1]: 1.63 ± 0.01 µmol/J
- Cleavage of conjugate in collected samples (HPLC) [2]: cleaved to liberate acetyl salicylic acid
